Reference: patent US12071434B2, “Heterocyclic compound” (Takeda Pharmaceutical Company Limited, priority 2018, dated 2024)

These compounds were tested against T1, human orexin type 2 receptor (Homo sapiens, UniProt O43614) (assay: Measurement of orexin type 2 receptor agonist activity (calcium fluorescence, Fluo-4 AM, FDSS) in CHO cells forcibly expressing human OX2 receptor). Conditions: test compound 3 μM, DMSO = 0%, orexin A (human) 10 nM = 100%.
T1 construct: expressed in transfected cells
T1 sequence (O43614 1-444): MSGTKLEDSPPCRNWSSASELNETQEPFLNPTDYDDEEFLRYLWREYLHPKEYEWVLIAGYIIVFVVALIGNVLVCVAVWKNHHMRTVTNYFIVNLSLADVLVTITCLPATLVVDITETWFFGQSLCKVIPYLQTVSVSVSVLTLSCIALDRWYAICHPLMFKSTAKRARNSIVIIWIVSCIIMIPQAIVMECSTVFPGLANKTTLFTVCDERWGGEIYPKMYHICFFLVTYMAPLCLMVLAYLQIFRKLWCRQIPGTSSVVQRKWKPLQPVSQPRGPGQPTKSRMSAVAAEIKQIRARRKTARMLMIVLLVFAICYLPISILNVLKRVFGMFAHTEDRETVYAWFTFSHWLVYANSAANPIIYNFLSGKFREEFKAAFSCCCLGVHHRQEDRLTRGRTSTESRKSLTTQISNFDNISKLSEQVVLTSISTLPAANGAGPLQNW
Format: cell-based
In short: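 CHO-dhfr cells stably expressing human OX2 receptor, loaded with Fluo-4 AM plus probenecid for 30 min at 37 °C, then 30 min at room temperature. Calcium fluorescence read for about 2 min 40 s after compound addition. Activity (%) scaled between DMSO (0%) and 10 nM human orexin A (100%).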

Point of comparison: `CC(C)n1cnc2c(c1=O)[C@@H](Cc1cccc(-c3ccn(C)n3)c1)[C@@H](NS(C)(=O)=O)CC2` (racemic) [Example 117, rac-N-[(5R,6S)-5-{[3-(1-methyl-1H-pyrazol-3-yl)phenyl]-methyl}-4-oxo-3-(propan-2-yl)-3,4,5,6,7,8-hexahydroquinazolin-6-yl]methanesulfonamide], “0X2R agonist activity (3 μM, %)” value 97%. Against it:
- CCn1c(C)nc2c(c1=O)C(Cc1cccc(-c3cc(F)cc(F)c3)c1)C(NS(C)(=O)=O)CC2 (racemic) [Example 75] — lower, 92%
- COc1ccc2n(c1=O)[C@@H](Cc1cccc(-c3ccccc3)c1)[C@@H](NS(C)(=O)=O)CC2 (racemic) [Example 34, rac-N-{(3S,4S)-4-[([1,1′-biphenyl]-3-yl)methyl]-7-methoxy-6-oxo-1,3,4,6-tetrahydro-2H-quinolizin-3-yl}methanesulfonamide] — higher, 105%
- Cc1cc(=O)n2c(c1C)CC[C@H](NS(C)(=O)=O)[C@@H]2Cc1cccc(-c2ccccc2)c1 (racemic) [Example 20, rac-N-{(3S,4S)-4-[([1,1′-biphenyl]-3-yl)methyl]-8,9-dimethyl-6-oxo-1,3,4,6-tetrahydro-2H-quinolizin-3-yl}methanesulfonamide] — higher, 113%
- CCn1c(C)nc2c(c1=O)[C@@H](Cc1cccc(-c3cccc(C)c3)c1)[C@@H](NS(C)(=O)=O)CC2 (racemic) [Example 78, rac-N-{(5R,6S)-3-ethyl-2-methyl-5-[(3′-methyl[1,1′-biphenyl]-3-yl)methyl]-4-oxo-3,4,5,6,7,8-hexahydroquinazolin-6-yl}methanesulfonamide] — higher, 100%
- Cn1ccc2c(c1=O)[C@@H](Cc1cccc(-c3ccccc3)c1)[C@@H](NS(C)(=O)=O)CC2 (racemic) [Example 46, rac-N-{(7S,8R)-8-[([1,1′-biphenyl]-3-yl)methyl]-2-methyl-1-oxo-1,2,5,6,7,8-hexahydroisoquinolin-7-yl}methanesulfonamide] — higher, 102%
- CC(C)n1cnc2c(c1=O)[C@@H](Cc1cccc(-c3ccccc3)c1)[C@@H](NS(=O)(=O)CF)CC2 (relative stereo) [Example 145, rel-N-[(5R,6S)-5-[([1,1′-biphenyl]-3-yl)methyl]-4-oxo-3-(propan-2-yl)-3,4,5,6,7,8-hexahydroquinazolin-6-yl]-1-fluoromethanesulfonamide] — lower, 92%
- Cc1ccc2n(c1=O)[C@@H](Cc1cccc(-c3cccc(F)c3)c1)[C@@H](NS(C)(=O)=O)CC2 (relative stereo) [Example 69, rel-N-{(3S,4S)-4-[(3′-fluoro[1,1′-biphenyl]-3-yl)methyl]-7-methyl-6-oxo-1,3,4,6-tetrahydro-2H-quinolizin-3-yl}methanesulfonamide] — lower, 94%
- CCc1ccc2n(c1=O)[C@@H](Cc1cccc(-c3cc(F)cc(F)c3)c1F)[C@@H](NS(C)(=O)=O)CC2 (racemic) [Example 132, rac-N-{[3S,4S)-7-ethyl-6-oxo-4-[(2,3′,5′-trifluoro[1,1′-biphenyl]-3-yl)methyl]-1,3,4,6-tetrahydro-2H-quinolizin-3-yl}methanesulfonamide] — higher, 104%
- CC(C)n1cnc2c(c1=O)[C@@H](Cc1cccc(-c3cccc(F)c3F)c1F)[C@@H](NS(C)(=O)=O)CC2 (relative stereo) [Example 151, rel-N-{(5R,6S)-4-oxo-3-(propan-2-yl)-5-[(2,2′,3′-trifluoro[1,1′-biphenyl]-3-yl)methyl]-3,4,5,6,7,8-hexahydroquinazolin-6-yl}methanesulfonamide] — higher, 107%
- CS(=O)(=O)N[C@H]1CCc2c(Cl)nc(Cl)c(=O)n2[C@H]1Cc1cccc(-c2ccccc2)c1 (racemic) [Example 61, rac-N-{(6S,7S)-6-[([1,1′-biphenyl]-3-yl)methyl]-1,3-dichloro-4-oxo-6,7,8,9-tetrahydro-4H-pyrido[1,2-a]pyrazin-7-yl}methanesulfonamide] — lower, 51%
- CC(C)n1cnc2c(c1=O)[C@@H](Cc1cccc(-c3cc(F)cc(F)c3)c1)[C@@H](NS(=O)(=O)C1(F)CC1)CC2 (relative stereo) [Example 187, rel-N-[(5R,6S)-5-[(3′,5′-difluoro[1,1′-biphenyl]-3-yl)methyl]-4-oxo-3-(propan-2-yl)-3,4,5,6,7,8-hexahydroquinazolin-6-yl]-1-fluorocyclopropane-1-sulfonamide] — lower, 94%
- CC(C)n1cnc2c(c1=O)C(Cc1cccc(-c3ccccc3)c1)C(NS(C)(=O)=O)C(F)C2 (racemic) [Example 173, rac-N-[(5R,6R)-5-[([1,1′-biphenyl]-3-yl)methyl]-7-fluoro-4-oxo-3-(propan-2-yl)-3,4,5,6,7,8-hexahydroquinazolin-6-yl]methanesulfonamide] — lower, 91%
- Cc1ccc2n(c1=O)C(Cc1cccc(-c3cccc(F)c3)c1)C(NC(=O)[C@@H]1CCCO1)CC2 (stereo in doubt) [Example 44, (2S)-N-{(3S*,4S*)-4-[(3′-fluoro[1,1′-biphenyl]-3-yl)methyl]-7-methyl-6-oxo-1,3,4,6-tetrahydro-2H-quinolizin-3-yl}oxolane-2-carboxamide] — lower, 96%
- CCn1ccc2c(c1=O)[C@@H](Cc1cccc(-c3cccc(F)c3)c1)[C@@H](NS(C)(=O)=O)CC2 (racemic) [Example 79, rac-N-{(7S,8R)-2-ethyl-8-[(3′-fluoro[1,1′-biphenyl]-3-yl)methyl]-1-oxo-1,2,5,6,7,8-hexahydroisoquinolin-7-yl}methanesulfonamide] — higher, 102%
- CC(C)n1cnc2c(c1=O)[C@@H](Cc1cccc(-c3cccc(F)c3F)c1F)[C@@H](NS(=O)(=O)CF)CC2 [Example 196, 1-fluoro-N-{(5R,6S)-4-oxo-3-(propan-2-yl)-5-[(2,2′,3′-trifluoro[1,1′-biphenyl]-3-yl)methyl]-3,4,5,6,7,8-hexahydroquinazolin-6-yl}methanesulfonamide] — lower, 91%
- CCn1ccc2c(c1=O)[C@@H](Cc1cccc(-c3cc(F)cc(C)c3F)c1)[C@@H](NS(C)(=O)=O)CC2 (racemic) [Example 127, rac-N-{(7S,8R)-8-[(2′,5′-difluoro-3′-methyl[1,1′-biphenyl]-3-yl)methyl]-2-ethyl-1-oxo-1,2,5,6,7,8-hexahydroisoquinolin-7-yl}methanesulfonamide] — higher, 105%
- CC(C)n1cnc2c(c1=O)C(Cc1cccc(-c3cccc(F)c3)c1)C(NS(=O)(=O)C1(F)CC1)CC2 (stereo not drawn) [Example 186, rel-1-fluoro-N-{5-[(3′-fluoro[1,1′-biphenyl]-3-yl)methyl]-4-oxo-3-(propan-2-yl)-3,4,5,6,7,8-hexahydroquinazolin-6-yl}cyclopropane-1-sulfonamide] — lower, 90%
- CC(C)n1cnc2c(c1=O)[C@@H](Cc1ccccc1Oc1ccccc1)[C@@H](NS(C)(=O)=O)CC2 (racemic) [Example 133, rac-N-[(5R,6S)-4-oxo-5-[(2-phenoxyphenyl)methyl]-3-(propan-2-yl)-3,4,5,6,7,8-hexahydroquinazolin-6-yl]methanesulfonamide] — lower, 72%
- CCc1ccc2n(c1=O)C(Cc1cccc(-c3cc(F)cc(F)c3)c1)C(NS(C)(=O)=O)CC2 (racemic) [Example 101, rac-N-{(3S,4S)-4-[(3′,5′-difluoro[1,1′-biphenyl]-3-yl)methyl]-7-ethyl-6-oxo-1,3,4,6-tetrahydro-2H-quinozilin-3-yl}methanesulfonamide] — higher, 98%
- CCS(=O)(=O)N[C@H]1CCc2ncn(C(C)C)c(=O)c2[C@H]1Cc1cccc(-c2cccc(F)c2)c1F [Example 170, N-[(5R,6S)-5-[(2,3′-difluoro[1,1′-biphenyl]-3-yl)methyl]-4-oxo-3-(propan-2-yl)-3,4,5,6,7,8-hexahydroquinazolin-6-yl]ethanesulfonamide] — lower, 87%
- Cc1ccc2n(c1=O)C(Cc1cccc(-c3cccc(F)c3)c1F)C(NC(=O)[C@@H]1CCCO1)CC2 (stereo in doubt) [Example 54, (2S)-N-{(3S*,4S*)-4-[(2,3′-difluoro[1,1′-biphenyl]-3-yl)methyl]-7-methyl-6-oxo-1,3,4,6-tetrahydro-2H-quinolizin-3-yl}oxolane-2-carboxamide] — the same, 97%
- CCn1ccc2c(c1=O)[C@@H](Cc1cccc(-c3ccccc3)c1F)[C@@H](NS(C)(=O)=O)C[C@@H]2F (racemic) [Example 167, rac-N-{(5S,7S,8R)-2-ethyl-5-fluoro-8-[(2-fluoro[1,1′-biphenyl]-3-yl)methyl]-1-oxo-1,2,5,6,7,8-hexahydroisoquinolin-7-yl}methanesulfonamide] — lower, 93%
- CCc1cccc(C[C@H]2[C@@H](NS(C)(=O)=O)CCc3ccc(CC)c(=O)n32)c1 (racemic) [Example 135, rac-N-{(3S,4S)-7-ethyl-4-[(3-ethylphenyl)methyl]-6-oxo-1,3,4,6-tetrahydro-2H-quinolizin-3-yl}methanesulfonamide] — lower, 90%
